The numbers were not newly measured in patent US20030225101A1 (priority 2002, published 2003), which cites them from elsewhere.

For data set [1] the following is noted: oral administration.
Data set [2] has as its system isolated corpus cavernosum.

Regarding `CCCc1nn(C)c2c(=O)[nH]c(-c3cc(S(=O)(=O)N4CCN(C)CC4)ccc3OCC)nc12` [sildenafil, 1-[4-ethoxy-3-(6,7-dihydro-1-methyl-7-oxo-3-propyl-1H-pyrazolo[4,3-d]pyrimidin-5-yl)phenylsulphonyl]-4-methylpiperazine], the absolute bioavailability result in data set [1] was “about 40%”. Besides, the “direct relaxant effect on isolated corpus cavernosum” value in data set [2] was “no direct relaxant effect”.
